Source: patent US20220119794A1, “CHEMICALLY PROGRAMMED NEUTROPHILS AND USES THEREOF” (VIRGINIA POLYTECHNIC INSTITUTE AND STATE UNIVERSITY, priority 2018, published 2022)

How the values were obtained:
[1] = tested on: oxCaMKII and 5-LOX in BM neutrophils; assay: Immunoblotting of oxCaMKII and 5-LOX in neutrophils; type: cell-based, C57 BL/6 mice; conditions: LPS 100 pg/ml, vs PBS
Protocol: Immunoblotting. Purified BM neutrophils were cultured in complete RPMI medium with G-CSF (100 ng/ml) in the presence of PBS, subclinical dose LPS (100 pg/ml), oxLDL (10 μg/ml) or 4-PBA (1 mM), and total cell lysate was extracted on day 2. Protein samples were separated with SDS-PAGE and transferred to PVDF membranes, which were probed with anti-oxCaMKII (Millipore, #07-1387, 1:500 dilution), anti-5 LOX (Cell Signaling, #3289S, 1:500 dilution), and anti-β-actin (Santa Cruz, #sc-47778, 1:1000 dilution) primary antibodies followed by horseradish peroxidase-conjugated anti-rabbit IgG (Cell Signaling, #7074S, 1:1000 dilution) or anti-mouse IgG (Cell Signaling, #7076S, 1:1000 dilution) secondary antibodies. Images were developed by a chemiluminescence ECL detection kit (ThermoFisher).

BM neutrophils [2] = assay: Intracellular ROS detection with CellROX; type: cell-based, C57 BL/6 mice; conditions: LPS 100 pg/ml, vs PBS
Protocol: In vitro neutrophil priming and FACS analysis. Bone marrow (BM) neutrophils were isolated from C57 BL/6 mice and cultured in complete RPMI medium containing 10% fetal bovine serum, 2 mM L-glutamine, 1% penicillin/streptomycin in the presence of G-CSF (100 ng/ml). PBS, subclinical dose LPS (100 pg/ml), oxLDL (10 μg/ml) or 4-PBA (1 mM) was added to cell cultures. After 2 days, the cells were harvested and stained with anti-Ly6G (BioLegend, #127606, 127610 or 127618, 1:200 dilution), anti-CD11b (BioLegend, #101206, 1:200 dilution), anti-CD62L (BioLegend, #104407, 1:200 dilution), anti-Dectin1 (BioLegend, #144305, 1:200 dilution), anti-LLRC32 (BioLegend, #142904, 1:200 dilution) and anti-FPN (Novus, #NBP1-21502, 1:200 dilution) antibodies. […] Surface phenotype and transcription factor phosphorylation of Ly6G+ neutrophils were analyzed by FACSCanto II (BD Biosciences). For intracellular ROS detection, 5 μM CellROX Green Reagent (ThermoFisher) was added to neutrophil cultures 30 min before harvesting, and cells were analyzed by FACSCanto II (BD Biosciences). […]

BM neutrophils [3] = assay: ELISA of MMP9, LTB4, MPO in neutrophil culture supernatant; type: cell-based, C57 BL/6 mice; conditions: LPS 100 pg/ml with G-CSF, vs G-CSF alone
Protocol: (§1) ELISA and determination of plasma lipids. For in vivo analyses, plasma was collected from the mice at time of sacrificing. For in vitro analyses, purified BM neutrophils were cultured in complete RPMI medium with G-CSF (100 ng/ml) in the presence of PBS, subclinical dose LPS (100 pg/ml), oxLDL (10 μg/ml) or 4-PBA (1 mM), and supernatant was collected after 2 d. ELISA kit of MPO was purchased from ThermoFisher, and ELISA kits of MMP9, LTB4 and TGF-β1 were purchased from R&D Systems. Cholesterol quantitation kit was purchased from Sigma-Aldrich, and triglyceride quantification kit was purchased from BioVision.

mice = mice repeatedly injected with 1.5 mg/kg LPS; cited from earlier work
BM neutrophils [4] = assay: Lysosome-peroxisome fusion by confocal microscopy; type: cell-based, C57 BL/6 mice; conditions: LPS 100 pg/ml, 2 d, vs PBS
Protocol: Confocal Microscopy. Purified BM neutrophils were cultured in complete RPMI medium with G-CSF (100 ng/ml) in the presence of PBS, subclinical dose LPS (100 pg/ml), or 4-PBA (1 mM) for 2 d. To determine lysosome-peroxisome fusion, the cells were fixed with 4% PFA, deposited on slides through cytospin, and permeabilized with 0.2% Trinton X-100. The cells were blocked and stained with primary rabbit anti-mouse PMP70 antibody (1:1000) supplied in SelectFX® Alexa Fluor® 488 Peroxisome Labeling Kit (ThermoFisher, #S34201), followed by staining with Alexa Fluor 488-goat anti-rabbit secondary antibody (1:1000) supplied in the kit. After extensive washing with PBS, the cells were then stained with Cy3-anti-LAMP1 antibody (Abcam, #Ab67283, 1:1000) and observed under a confocal microscope.

[5] = tested on: p-STAT1, ATF4, KLF2 in BM neutrophils; assay: p-STAT1, ATF4 and KLF2 levels in neutrophils by flow cytometry; type: cell-based, C57 BL/6 mice; conditions: LPS 100 pg/ml, vs PBS
Protocol: (§2) In vitro neutrophil priming and FACS analysis. Bone marrow (BM) neutrophils were isolated from C57 BL/6 mice and cultured in complete RPMI medium containing 10% fetal bovine serum, 2 mM L-glutamine, 1% penicillin/streptomycin in the presence of G-CSF (100 ng/ml). PBS, subclinical dose LPS (100 pg/ml), oxLDL (10 μg/ml) or 4-PBA (1 mM) was added to cell cultures. After 2 days, the cells were harvested and stained with anti-Ly6G (BioLegend, #127606, 127610 or 127618, 1:200 dilution), anti-CD11b (BioLegend, #101206, 1:200 dilution), anti-CD62L (BioLegend, #104407, 1:200 dilution), anti-Dectin1 (BioLegend, #144305, 1:200 dilution), anti-LLRC32 (BioLegend, #142904, 1:200 dilution) and anti-FPN (Novus, #NBP1-21502, 1:200 dilution) antibodies. In some experiments, the cells were fixed and permeabilized using transcription factor phospho buffer set (BD Biosciences), and then stained with primary anti-p-STAT1 (Cell Signaling, #8009S, 1:50 dilution), anti-ATF4 (Proteintech, #10835-1-AP, 1:50 dilution), and anti-KLF2 (Novus, #NBP2-61812, 1:100 dilution) antibodies followed by staining with Alexa Fluor 488 conjugated goat anti-rabbit IgG (Abcam, #ab150077, 1:2000 dilution). Surface phenotype and transcription factor phosphorylation of Ly6G+ neutrophils were analyzed by FACSCanto II (BD Biosciences). For intracellular ROS detection, 5 μM CellROX Green Reagent (ThermoFisher) was added to neutrophil cultures 30 min before harvesting, and cells were analyzed by FACSCanto II (BD Biosciences). The data were processed by Flow Jo (Tree Star).

BM neutrophils [6] = assay: Surface phenotype of neutrophils before transfer, polarization for 24 h; type: cell-based, mice; conditions: polarized for 24 hours, vs PBS
Protocol: Bone marrow neutrophils were purified and treated with PBS, super-low-dose LPS (100 pg/ml) or 4-PBA (1 mM) for 24 h (FIGS. 16A-16B) and 48 h (FIGS. 16C-16D). The cells were stained with Annexin-V and PI, and the viability (percentage of Annexin-V-/PI-population) was determined by flow cytometry. (FIG. 16E) Surface phenotype of neutrophils was analyzed by flow cytometry after polarization for 24 h. Data are representative of three independent experiments, and error bars represent means±S.E.M. *P<0.05, **P<0.01 and ***P<0.001 as compared with PBS group; one-way ANOVA. (n=5 for each group).
Adoptive transfer of in vitro neutrophils. Bone marrow (BM) cells were isolated from ApoE−/− mice and BM neutrophils (Ly6G+ population) were purified by FACS sorting with >99.5% purity. The cells were cultured in complete RPMI with G-CSF (100 ng/ml) in the presence of subclinical dose LPS (100 pg/ml) or 4-PBA (1 mM) for 24 h. Cells were washed three times with PBS and suspended in PBS for injection. HFD-fed ApoE−/− mice were transfused with 2×10^6 neutrophils in 200 μl PBS once weekly through intravenous injection for 4 weeks. One week after the last cell transfer, mice were sacrificed and tissues were harvested for subsequent analyses.

Ly6G+ neutrophils = assay: Analyses of neutrophil phenotype in vivo by flow cytometry; set-up: species or system mice
Protocol: (§3) Experimental animals and LPS injection. Male ApoE−/− mice (6 to 8-week old) on the C57 BL/6 background were purchased from the Jackson Laboratory and fed with regular diet or High Fat Diet. Either PBS or subclinical dose LPS (5 ng per kg body weight) was intraperitoneally injected every 3 days for 1 month. Then, the mice were sacrificed and tissues were harvested for further analyses. All animal procedures were in accordance with the US National Institutes of Health Guide for the Care and Use of Laboratory Animals and approved by the Intuitional Animal Care and Use Committee of Virginia Tech.
Analyses of neutrophil phenotype in vivo. Peripheral blood cells, bone marrow (BM) cells and splenocytes were harvested from the mice treated as described above. Cells were stained with anti-Ly6G (BioLegend, #127618, 1:200 dilution), anti-CD11b (BioLegend, #101206, 1:200 dilution), anti-CD62L (BioLegend, #104407, 1:200 dilution), anti-Dectin1 (BioLegend, #144305, 1:200 dilution), anti-LLRC32 (BioLegend, #142904, 1:200 dilution) and anti-FPN (Novus, #NBP1-21502, 1:200 dilution) antibodies. The surface phenotype of Ly6G+ neutrophils was analyzed by FACSCanto II (BD Biosciences). The data were processed by Flow Jo (Tree Star).

ApoE−/− mice = assay: Subclinical low dose LPS injection in ApoE−/− mice: atherosclerotic lesions, circulating mediators; type: in vivo; conditions: for lesional oxCAMKII levels: low dose LPS vs PBS
Protocol: as §3
Analyses of atherosclerotic lesions. Histological analyses were performed on fresh-frozen and optimal cutting temperature (OCT) compound-embedded proximal aortic sections ([…]). Slides were fixed in 4% neutral buffered formalin for 5 min, followed by H&E or Oil Red O staining. Collagen staining was performed using the Picrosirius Red Stain Kit (Poly-Sciences) according to the manufacturer's instructions. The samples were observed under a light microscope. The percentages of total lesion area, lipid deposition, and collagen composition were calculated. For immunofluorescence staining, proximal aortic sections were fixed with 4% neutral buffered formalin for 5 min, permeabilized with 0.1% saponins, and blocked with 10% normal goat serum (Jackson ImmunoResearch) for 1 hour. To detect lesional neutrophils, the samples were stained with Alexa Fluor 647-conjugated anti-Ly6G antibody (1:50 dilution; BioLegend, no. 127610). To detect lesional macrophages, the samples were costained with eFluor 660-conjugated anti-CD68 (1:100 dilution; Thermo Fisher Scientific, no. 50-0681-82) and rabbit anti-SR-A (1:100 dilution; Thermo Fisher Scientific, no. PA5-22956) antibodies, followed by staining with DyLight 488-conjugated goat anti-rabbit immunoglobulin G (IgG) (1:100 dilution; Thermo Fisher Scientific, no. 35552) in the dark at room tem-perature for 1 hour. To detect oxCAMKII levels, the samples were stained with rabbit anti-oxCaMKII antibody (1:100 dilution; Millipore, no. 07-1387) at 4° C. overnight and then with DyLight 488-conjugated goat anti-rabbit IgG (1:100 dilution; Thermo Fisher Scientific, no. 35552) in the dark at room temperature for 1 hour. 4′,6-Diamidino-2-phenylindole was used to stain nucleus. The samples were observed under a confocal microscope.
as §1

BM neutrophils [7] = assay: Real-time RT-PCR of miR-24 and miR-126 in neutrophil cultures; type: cell-based, C57 BL/6 mice; conditions: LPS 100 pg/ml, 2 d, vs PBS
Protocol: Real-Time RT-PCR for detecting of miRNAs. For in vivo analyses, plasma was collected from the mice at time of sacrificing. Circulating miRNAs were isolated with miRNeasy Serum/Plasma kit (Qiagen). For in vitro analyses, purified BM neutrophils were cultured in complete RPMI medium with G-CSF (100 ng/ml) in the presence of PBS, subclinical dose LPS (100 pg/ml), or 4-PBA (1 mM), and miRNAs were isolated with miRNeasy mini kit (Qiagen) after 2 d. TaqMan miRNA Assay kits for detection of U6, miR-16, miR-24, and miR-126 were purchased from ThermoFisher. Real-time RT-PCR was performed following the manual. U6 expression was used as the internal control for miRNA expressions in neutrophil cultures, and miR-16 expression was used as the internal control for plasma miRNA expressions.

[8] = tested on: Bone marrow (BM) neutrophils; assay: In vitro neutrophil priming, surface phenotype by FACS; type: cell-based, C57 BL/6 mice; conditions: LPS 100 pg/ml with G-CSF, vs G-CSF alone
Protocol: as §2

[9] = LPS-injected vs PBS-injected mice
[10] = LPS-injected vs PBS-injected mice, blood, spleen, bone marrow
[11] = HFD-fed ApoE−/− mice, LPS 5 ng/kg body weight for 4 weeks, vs PBS

lipopolysaccharide [LPS]
5-LOX level [1]: increased levels | oxCAMKII level [1]: increased levels | intracellular ROS level (BM neutrophils [2]): significantly higher levels | LTB4 in supernatant (BM neutrophils [3]): Significantly higher levels | MMP9 in supernatant (BM neutrophils [3]): Significantly higher levels | MPO in supernatant (BM neutrophils [3]): Significantly higher levels | necrotic cores (mice): enlarged | numbers of circulating neutrophils (mice): elevated numbers | plaque collagen content (mice): reduced | fusion between peroxisome and lysosome (BM neutrophils [4]): disruption of proper fusion | cellular level of ATF4 [5]: significantly reduced | cellular level of KLF2 [5]: significantly reduced | p-STAT1 level [5]: significantly elevated levels | CD11b expression (BM neutrophils [6]): elevated expressions | CD62L expression (BM neutrophils [6]): reduced expressions | Dectin-1 expression (BM neutrophils [6]): elevated expressions | FPN expression (BM neutrophils [6]): reduced expressions | LRRC32 expression (BM neutrophils [6]): reduced expressions | neutrophil surface level of FPN (Ly6G+ neutrophils; [9]): significantly reduced | neutrophil surface level of LRRC32 (Ly6G+ neutrophils; [9]): significantly reduced | neutrophil surface CD11b (Ly6G+ neutrophils; [10]): significantly elevated | neutrophil surface Dectin1 (Ly6G+ neutrophils; [10]): significantly elevated | neutrophil surface-attached CD62L (Ly6G+ neutrophils; [10]): significant reduction | percentages of neutrophils in blood, spleens and atherosclerotic plaques (Ly6G+ neutrophils; mice chronically injected with LPS vs PBS): higher percentages | atherosclerotic plaque size (ApoE−/− mice; [11]): significantly larger | circulating MPO (ApoE−/− mice; [11]): remarkable elevation | circulating levels of TGFβ (ApoE−/− mice; [11]): significantly reduced | collagen content within the plaque (ApoE−/− mice; [11]): significantly reduced | plasma LTB4 level (ApoE−/− mice; [11]): significant elevation | plasma MMP9 level (ApoE−/− mice; [11]): significant elevation | lesional oxCAMKII levels (ApoE−/− mice; HFD-fed ApoE−/− mice): significantly elevated | lesional oxCAMKII levels (ApoE−/− mice; RD-fed ApoE−/− mice): significantly elevated | miR-24 expression (BM neutrophils [7]): induced | miR-126 expression (BM neutrophils [7]): potently suppressed | surface CD11b [8]: Significantly elevated levels | surface CD62L [8]: significantly reduced levels | surface Dectin-1 [8]: Significantly elevated levels | surface FPN [8]: significantly reduced levels | surface LRRC32 [8]: significantly reduced levels
